Read-outs that look alike come from different tables or passages of the source. Marks after values point to notes of the source that are not given here.
Key:
[1] = UV titration of cyclodextrin into cortisol (absorbance at 246 nm); type: binding; details: 1:1 cortisol:γ-cyclodextrin complex
Source text: UV-visible spectroscopy was used to monitor the complex formation between cortisol and a library of cyclodextrin derivatives. The UV spectrum of cortisol contains an absorption band having a maximum at 246 nm. The intensity of the UV line at 246 nm decreases upon complexation of cortisol by addition of a cyclodextrin host molecule. The decrease in the absorbance of an aqueous solution of the guest molecule (cortisol) upon addition of a typical host molecule (like a cyclodextrin derivative) is taken as evidence that the guest molecule has moved from the polar aqueous environment to the usually less polar environment of the interior of the host molecule. The methodology is well established in the field of supramolecular chemistry (Tsukube, H. et al. In Comprehensive Supramolecular Chemistry: Physical Methods in Supramolecular Chemistry. Davies J E D, Ripmeester J A, (Eds) Elsevier, Oxford, 1996: Vol 8, pp 425-483).
The association constants for complex formation are determined by performing a titration of cyclodextrin into cortisol and recording the UV spectrum as a function of the cyclodextrin/steroid ratio. The change in absorption of cortisol at 246 nm (Δ A) upon stepwise addition of cyclodextrin is recorded. The best fit line to the data give Ka for the cortisol-cyclodextrin complex (Liu Y, Li, B, You C-C, Wada, T, Inoue Y. J. Org. Chem., 2001, 66, 225-232). […]

[2] = Urinary excretion of exogenous cortisol in the rat; type: in vivo, Lister hooded rats
Protocol: Two groups of four rats (Lister hooded rats, 300-320 g) were administered (intravenously) either […] of cortisol alone (Group I) or cortisol followed after 15 minutes by 6-per-deoxy-6-per-(2,3-dihydroxypropylthio)-γ-cyclodextrin (Org 26276) as a single intravenous dose of 20 mg/kg (Group II). Each rat was placed in a metabolic cage for the collection of urine. Urine samples were collected for the first 5 hours and thereafter for the remainder of 24 hours The collected urine samples were subjected to HPLC-MS (high pressure liquid chromatograpy on a Phenomenex Luna (50×2 mm; […]) column coupled to a PE Sciex API 3000 Mass Spectrometer). The limit of quantitation for cortisol in urine was 2.5 ng/ml and 10 ng/ml in plasma.

[3] = Urinary excretion of endogenous cortisol in the guinea pig; type: in vivo; details: iv 5 mg/250 g
Protocol: In guinea piogs cortisol is endogenously produced, the basal level of which is approximately 120-150 ng/ml in plasma.

[4] = Isothermal titration calorimetry (microcalorimetry) of cortisol complex; type: binding; details: 1:1 cortisol complex, microcalorimetry / ITC
Source text: The interaction between a sequestering agent and cortisol can be analyzed by physical methods such as nuclear magnetic resonance spectroscopy (nmr) (Fielding, L.: Tetrahedron, 56 (34), 6151-6170, 2000) and microcalorimetry (Stoedeman M. and Wadsoe I.: Pure Appl. Chem., 67(7), 1059-68, 1995). These techniques also allow one to establish the selectivity of the binding to cortisol in comparison with the other endogenous steroidal compounds.
The association constants for complex formation are determined by performing a titration of cyclodextrin into cortisol and recording the UV spectrum as a function of the cyclodextrin/steroid ratio. The change in absorption of cortisol at 246 nm (Δ A) upon stepwise addition of cyclodextrin is recorded. The best fit line to the data give Ka for the cortisol-cyclodextrin complex (Liu Y, Li, B, You C-C, Wada, T, Inoue Y. J. Org. Chem., 2001, 66, 225-232). The UV methodology provides a fairly good estimate of the association constant when this constant is below 10^5 M^−1. The results used for the determination of the association constant for the binding of cortisol to γ-cyclodextrin, β-cyclodextrin and to 2 γ-cyclodextrin derivatives are shown in FIG. 1. […] This is because the chromophore in cortisol is relatively weak and instrument signal to noise issues prevented the preparation of sufficiently dilute solutions. […] The high cortisol binding constant for these γ-cyclodextrin derivatives indicates these derivatives to be potentially very active cortisol sequestering agents. An alternative, but more laborious, method for the determination of the cortisol association constant is by isothermal titration calorimetry (see Wiseman et al. […], 131-137), which can be used to determine the high Ka's more accurately.

[5] = 1:1 cyclodextrin:cortisol complex in water, reported values; cited from earlier work

## 6-per-deoxy-6-per-(2,3-dihydroxypropylthio)-γ-cyclodextrin [Org 26276]
[1]; listed as Example 1
  Ka: >100,000^a M^−1
[2]; 20 mg/kg iv, versus group that received cortisol alone
  enhancement of excretion of cortisol compared to the control group: approximately 10 fold
[2]; iv cortisol followed after 15 minutes by 20 mg/kg iv, urine collected in the first 5 hours
  mean cortisol level in the urine: 111 ± 78 ng/mL
[3]
  increase of amount of urinary cortisol excreted during 24 hours compared to the control group: 3 fold

## O=C(O)CCSC[C@H]1O[C@@H]2O[C@H]3[C@H](O)[C@@H](O)[C@@H](O[C@H]4[C@H](O)[C@@H](O)[C@@H](O[C@H]5[C@H](O)[C@@H](O)[C@@H](O[C@H]6[C@H](O)[C@@H](O)[C@@H](O[C@H]7[C@H](O)[C@@H](O)[C@@H](O[C@H]8[C@H](O)[C@@H](O)[C@@H](O[C@H]9[C@H](O)[C@@H](O)[C@@H](O[C@H]1[C@H](O)[C@H]2O)O[C@@H]9CSCCC(=O)O)O[C@@H]8CSCCC(=O)O)O[C@@H]7CSCCC(=O)O)O[C@@H]6CSCCC(=O)O)O[C@@H]5CSCCC(=O)O)O[C@@H]4CSCCC(=O)O)O[C@@H]3CSCCC(=O)O [6-per-deoxy-6-per-(2-carboxyethyl)thio-γ-cyclodextrin]
[1]
  Ka: ~30,000 M^−1
[4]
  Association Constant (Ka): ~40,000 M^−1
[4]; listed as Per-6-deoxy-per-6-(2-carboxyethyl)thio-γ-cyclodextrin
  Association Constant (Ka): 40000* M^−1

## O=C(O)c1ccc(SCC2OC3OC4C(CSc5ccc(C(=O)O)cc5)OC(OC5C(CSc6ccc(C(=O)O)cc6)OC(OC6C(CSc7ccc(C(=O)O)cc7)OC(OC7C(CSc8ccc(C(=O)O)cc8)OC(OC8C(CSc9ccc(C(=O)O)cc9)OC(OC9C(CSc%10ccc(C(=O)O)cc%10)OC(OC%10C(CSc%11ccc(C(=O)O)cc%11)OC(OC2C(O)C3O)C(O)C%10O)C(O)C9O)C(O)C8O)C(O)C7O)C(O)C6O)C(O)C5O)C(O)C4O)cc1 (centres unmarked) [6-per-deoxy-6-per-(4-carboxyphenyl)thio-γ-cyclodextrin]
[4]
  Association Constant (Ka): ˜80,000^b M^−1

## OC[C@H]1O[C@@H]2O[C@H]3[C@H](O)[C@@H](O)[C@@H](O[C@H]4[C@H](O)[C@@H](O)[C@@H](O[C@H]5[C@H](O)[C@@H](O)[C@@H](O[C@H]6[C@H](O)[C@@H](O)[C@@H](O[C@H]7[C@H](O)[C@@H](O)[C@@H](O[C@H]1[C@H](O)[C@H]2O)O[C@@H]7CO)O[C@@H]6CO)O[C@@H]5CO)O[C@@H]4CO)O[C@@H]3CO [α-CD]
[5]
  Association Constant (Ka): 57 M⁻¹

## OC[C@H]1O[C@@H]2O[C@H]3[C@H](O)[C@@H](O)[C@@H](O[C@H]4[C@H](O)[C@@H](O)[C@@H](O[C@H]5[C@H](O)[C@@H](O)[C@@H](O[C@H]6[C@H](O)[C@@H](O)[C@@H](O[C@H]7[C@H](O)[C@@H](O)[C@@H](O[C@H]8[C@H](O)[C@@H](O)[C@@H](O[C@H]1[C@H](O)[C@H]2O)O[C@@H]8CO)O[C@@H]7CO)O[C@@H]6CO)O[C@@H]5CO)O[C@@H]4CO)O[C@@H]3CO [β-CD, β-cyclodextrin]
[5]
  Association Constant (Ka): 1720 to 3000 M⁻¹

## OC[C@H]1O[C@@H]2O[C@H]3[C@H](O)[C@@H](O)[C@@H](O[C@H]4[C@H](O)[C@@H](O)[C@@H](O[C@H]5[C@H](O)[C@@H](O)[C@@H](O[C@H]6[C@H](O)[C@@H](O)[C@@H](O[C@H]7[C@H](O)[C@@H](O)[C@@H](O[C@H]8[C@H](O)[C@@H](O)[C@@H](O[C@H]9[C@H](O)[C@@H](O)[C@@H](O[C@H]1[C@H](O)[C@H]2O)O[C@@H]9CO)O[C@@H]8CO)O[C@@H]7CO)O[C@@H]6CO)O[C@@H]5CO)O[C@@H]4CO)O[C@@H]3CO [γ-CD, γ-cyclodextrin]
[5]
  Association Constant (Ka): 2240 M⁻¹

## Hydroxypropyl-β-CD
[5]
  Association Constant (Ka): 900 to 1000 M⁻¹

## Per-2,6-methyl-β-CD
[5]
  Association Constant (Ka): 5910 M⁻¹

## Per-6-acetyl-β-CD
[5]
  Association Constant (Ka): 3920 M⁻¹
